1 compound from paper PMC5085761 (International Journal of Molecular Sciences, 2016) can be followed below.

The target in this assay is T1, human MRP4 (Homo sapiens, UniProt O15439).
T1 construct: purchased GenoMembrane Co., Ltd. (Kanagawa, Japan); host or cells: Sf9
T1 sequence (O15439 1-1325): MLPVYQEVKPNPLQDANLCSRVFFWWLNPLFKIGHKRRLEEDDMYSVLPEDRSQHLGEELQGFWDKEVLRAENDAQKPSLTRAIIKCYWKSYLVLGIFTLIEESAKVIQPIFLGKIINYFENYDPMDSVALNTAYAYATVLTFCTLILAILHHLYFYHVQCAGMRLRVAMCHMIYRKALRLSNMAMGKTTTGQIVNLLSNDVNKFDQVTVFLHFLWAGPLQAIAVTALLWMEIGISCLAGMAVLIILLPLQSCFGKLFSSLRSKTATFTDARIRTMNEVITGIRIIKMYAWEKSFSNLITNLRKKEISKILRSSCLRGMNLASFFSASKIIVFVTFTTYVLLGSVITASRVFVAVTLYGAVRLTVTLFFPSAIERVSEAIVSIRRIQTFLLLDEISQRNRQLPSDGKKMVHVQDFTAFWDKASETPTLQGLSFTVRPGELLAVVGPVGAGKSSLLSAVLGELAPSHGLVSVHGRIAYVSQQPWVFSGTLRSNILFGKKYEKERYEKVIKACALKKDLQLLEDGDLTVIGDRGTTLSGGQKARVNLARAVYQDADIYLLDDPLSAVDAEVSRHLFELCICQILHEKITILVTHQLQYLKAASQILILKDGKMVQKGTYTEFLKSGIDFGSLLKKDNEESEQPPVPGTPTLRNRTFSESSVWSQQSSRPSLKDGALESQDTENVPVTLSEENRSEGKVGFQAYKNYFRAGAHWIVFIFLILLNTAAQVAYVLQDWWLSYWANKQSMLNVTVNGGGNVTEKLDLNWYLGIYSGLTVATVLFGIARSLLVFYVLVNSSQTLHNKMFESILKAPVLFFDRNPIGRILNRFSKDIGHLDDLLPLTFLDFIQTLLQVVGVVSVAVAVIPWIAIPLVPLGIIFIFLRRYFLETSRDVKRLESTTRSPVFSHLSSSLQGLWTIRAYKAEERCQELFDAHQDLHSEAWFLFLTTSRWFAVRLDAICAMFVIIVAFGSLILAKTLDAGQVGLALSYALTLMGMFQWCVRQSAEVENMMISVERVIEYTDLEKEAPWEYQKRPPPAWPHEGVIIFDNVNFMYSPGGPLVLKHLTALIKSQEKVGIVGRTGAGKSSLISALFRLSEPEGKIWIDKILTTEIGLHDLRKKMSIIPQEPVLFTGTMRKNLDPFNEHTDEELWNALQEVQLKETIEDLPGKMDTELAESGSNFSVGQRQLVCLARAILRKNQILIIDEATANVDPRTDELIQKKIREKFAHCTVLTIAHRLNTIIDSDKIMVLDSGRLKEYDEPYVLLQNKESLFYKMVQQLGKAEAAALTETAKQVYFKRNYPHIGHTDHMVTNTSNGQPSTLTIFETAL
In words: Inhibition of tracer uptake in MRP4-expressing vesicles. The format is in vitro ADME. Conditions: MRP4, tracer [3H]E2G 10 µM. The protocol:
For ABC transporters, experimental kits containing Sf9-derived vesicles with high expression levels of human P-gp, MRP4, BCRP, and each ABC transporter (including buffer, ATP/AMP solution, and glutathione) were purchased from GenoMembrane Co., Ltd. (Kanagawa, Japan).
Vesicular transport assays were carried out according to the manufacturer’s protocol. […] The reaction was started by suspending 50 μg of vesicles (10 μL) in 40 μL of the reaction buffer. After incubation for an appropriate period of time, the reaction was stopped by the addition of ice-cold stop buffer (40 mM MOPS-Tris and 70 mM KCl; pH 7.0), after which the solution was filtered through a 0.45 μm HA filter (Millipore Corp., Billerica, MA, USA) using suction, and was washed twice in 5 mL of ice-cold stop buffer. The radioactivity of the filter was measured with a Tri-Carb 2910TR liquid scintillation counter (PerkinElmer) using Ultima Gold (PerkinElmer). The amount of tracer uptake was normalized to the membrane protein amount described in the product information sheets.

Take `N[C@]1(C(=O)O)C[C@@H](F)C1` [fluciclovine]: it took 9.28 ± 1.9 mM to reach half-maximal inhibition (IC50).
